# Assay results as given in US20100184596A1, “METHOD FOR THE CONTROL OF WEEDS IN TURF” (SYNGENTA CROP PROTECTION, INC., priority 2007, published 2010).
# Tested on: Paspalum sp.
# Experiment: Weed control via post emergence spray, in common centipedegrass (Table B5.1)
# Format: in vivo
# Description: The weed control efficacy of the compound of formula I was tested. The compound was applied via post emergence spray to a range of weeds, at various rates and spray treatment treatment regimes. Percentage weed control assessments were taken at various timepoints.
smiles,measurement,setting,value
"COCCOCc1nc(C(F)(F)F)ccc1C(=O)C1=C(O)C2CCC(C2)C1=O (stereo not shown) [Formula I, 4-Hydroxy-3-[2-(2-methoxyethoxymethyl)-6-trifluoromethylpyridine-3-carbonyl]-bicyclo[3.2.1]oct-3-en-2-one]",% control,"1 appl, 140 g ai/ha, 5 DAT",16.67%
same,% control,"1 appl, 140 g ai/ha, 13 DAT",60.00%
same,% control,"1 appl, 140 g ai/ha, 21 DAT",55.00%
same,% control,"1 appl, 140 g ai/ha, 27 DAT",46.67%
same,% control,"1 appl, 140 g ai/ha, 35 DAT",21.67%
same,% control,"1 appl, 140 g ai/ha, 42 DAT",6.67%
same,% control,"1 appl, 140 g ai/ha, 61 DAT",13.33%
same,% control,"1 appl, 280 g ai/ha, 5 DAT",21.67%
same,% control,"1 appl, 280 g ai/ha, 13 DAT",71.67%
same,% control,"1 appl, 280 g ai/ha, 21 DAT",70.00%
same,% control,"1 appl, 280 g ai/ha, 27 DAT",60.00%
same,% control,"1 appl, 280 g ai/ha, 35 DAT",43.33%
same,% control,"1 appl, 280 g ai/ha, 42 DAT",20.00%
same,% control,"1 appl, 280 g ai/ha, 61 DAT",18.33%
same,% control,"2 appl, 140 g ai/ha, 5 DAT",20.00%
same,% control,"2 appl, 140 g ai/ha, 13 DAT",61.67%
same,% control,"2 appl, 140 g ai/ha, 21 DAT",61.67%
same,% control,"2 appl, 140 g ai/ha, 27 DAT",56.67%
same,% control,"2 appl, 140 g ai/ha, 35 DAT",83.33%
same,% control,"2 appl, 140 g ai/ha, 42 DAT",81.67%
same,% control,"2 appl, 140 g ai/ha, 61 DAT",70.00%
same,% control,"2 appl, 280 g ai/ha, 5 DAT",20.00%
same,% control,"2 appl, 280 g ai/ha, 13 DAT",68.33%
same,% control,"2 appl, 280 g ai/ha, 21 DAT",68.33%
same,% control,"2 appl, 280 g ai/ha, 27 DAT",58.33%
same,% control,"2 appl, 280 g ai/ha, 35 DAT",91.67%
same,% control,"2 appl, 280 g ai/ha, 42 DAT",95.00%
same,% control,"2 appl, 280 g ai/ha, 61 DAT",81.67%
